Test results published in patent EP2238984A1, “Caspasin inhibitor peptides” (INSTITUT NATIONAL DE LA RECHERCHE AGRONOMIQUE (INRA), priority 2009, dated 2010).

Test system: LNCaP human prostate cancer cells
Assay: BrdU cell proliferation assay
Type: cell-based
Settings: BrdU incorporation; for cell proliferation: LNCaP cells incubated with peptide, absorbance at 450 nm, at a concentration as lowest as 1 µM (Figure 1)
Protocol: Peptides of sequences SEQ ID NO: 48 and SEQ ID NO: 49 were used in the experiments. They were resuspended in dimethylsulfoxide (DMSO) to obtain a concentration of about 50 mM. They were then diluted in fetal calf serum (FCS) before being added to culture cells at the indicated concentrations.
FGC clone LNCaP human prostate cancer cells, commercialized by ATCC-LGC (Molsheim, France; ATCC Number: CRL-1740) were used.
The cells were incubated for 48 hours with the caspasin inhibitor peptides at the following concentrations: 0.1, 0.3, 0.9, 3, 10, 20, 30, 60 and 90 µM.
Cell proliferation was then assessed by quantifying the DNA precursor bromo-deoxyuridine (BrdU). This quantification was performed using the 5'-Bromo-2'-deoxy-uridine Labeling and Detection Kit (Roche) according to the manufacturer's instructions.
LNCaP prostatic cells were incubated for 24 hours in a 96-well plastic plate containing 200 µl RPMI 1640 medium complemented with 1.5 g/I sodium carbonate, 4.5 g/I glucose, 10 mM HEPES, 1.0 mM sodium pyruvate, 10% foetal bovine serum (FBS) and antibiotics. Peptides were pre-incubated for 1 h30 in 20 µl of FBS at 37°C, then added to 180 µl of RPMI. Medium from plates was released and the medium containing peptides was added to the cells. The cells were then cultured for another 24 hours. BrdU incorporation was then determined by measuring the absorbance at 450 nm on an ELISA plate reader.

| Substance | cell proliferation | concentration of peptide at which a plateau was reached (cell proliferation) (LNCaP cells, concentrations tested 0.1-90 µM (Figure 1)) |
| --- | --- | --- |
| SEQ ID NO: 48: caspasin inhibitor peptide originating from a caspasin reactive centre loop; sequence only in the sequence listing (ATGIGI) | drastic decrease of the cell proliferation | – |
| SEQ ID NO: 49: caspasin inhibitor peptide originating from a caspasin reactive centre loop; sequence only in the sequence listing (FLMMITNKA) | drastic decrease of the cell proliferation | 3 µM |
